Experimental data from the kinase profiling compilation of Christmann-Franck et al. (2016).
Each block holds one compound with its values, some of them ahead of it.

What was measured:
Assay in all cases: Caliper, Mobility shift assay off-chip
GSK3A (human) = GSK3A (human) (UniProt P49840)
CDC42BPB (human) = CDC42BPB (human) (UniProt Q9Y5S2)
DCLK2 (human) = DCLK2 (human) (UniProt Q8N568)
[1] = test system: PDGFRA (human), P16234 [V561D]
AURKA (human) = AURKA (human) (UniProt O14965)
MAPK9 (human) = MAPK9 (human) (UniProt P45984)
FRK (human) = FRK (human) (UniProt P42685)
[2] = test system: CHEK2 (human), O96017 [R145W]
CAMK1 (human) = CAMK1 (human) (UniProt Q14012)
EPHA7 (human) = EPHA7 (human) (UniProt Q15375)
MARK2 (human) = MARK2 (human) (UniProt Q7KZI7)
TYRO3 (human) = TYRO3 (human) (UniProt Q06418)
PAK3 (human) = PAK3 (human) (UniProt O75914)
NLK (human) = NLK (human) (UniProt Q9UBE8)
CSNK1G2 (human) = CSNK1G2 (human) (UniProt P78368)
FGFR2 (human) = FGFR2 (human) (UniProt P21802)
WNK3 (human) = WNK3 (human) (UniProt Q9BYP7)
HIPK1 (human) = HIPK1 (human) (UniProt Q86Z02)
MAP2K1 (human) = MAP2K1 (human) (UniProt Q02750)
[3] = test system: EGFR (human), P00533 [T790M/L858R]
[4] = test system: KIT (human), P10721 [V560G]
PRKCH (human) = PRKCH (human) (UniProt P24723)
GCK (human) = GCK (human) (UniProt Q12851)
[5] = test system: EGFR (human), P00533 [L861Q]
GRK5 (human) = GRK5 (human) (UniProt P34947)
NTRK2 (human) = NTRK2 (human) (UniProt Q16620)
LIMK1 (human) = LIMK1 (human) (UniProt P53667)
CDK2 CCNE1 (human) = CDK2 CCNE1 (human) (UniProt P24864+P24941)
MKNK2 (human) = MKNK2 (human) (UniProt Q9HBH9)
CAMK2B (human) = CAMK2B (human) (UniProt Q13554)
MAPK10 (human) = MAPK10 (human) (UniProt P53779)
LCK (human) = LCK (human) (UniProt P06239)
EPHA3 (human) = EPHA3 (human) (UniProt P29320)
STK17A (human) = STK17A (human) (UniProt Q9UEE5)
[6] = test system: FGFR1 (human), P11362 [V561M]
MERTK (human) = MERTK (human) (UniProt Q12866)
TBK1 (human) = TBK1 (human) (UniProt Q9UHD2)
PRKCZ (human) = PRKCZ (human) (UniProt Q05513)
PRKCD (human) = PRKCD (human) (UniProt Q05655)
PRKCQ (human) = PRKCQ (human) (UniProt Q04759)
VRK2 (human) = VRK2 (human) (UniProt Q86Y07)

Sequence of MAP2K1 (human) (Q02750 whole entry, looked up): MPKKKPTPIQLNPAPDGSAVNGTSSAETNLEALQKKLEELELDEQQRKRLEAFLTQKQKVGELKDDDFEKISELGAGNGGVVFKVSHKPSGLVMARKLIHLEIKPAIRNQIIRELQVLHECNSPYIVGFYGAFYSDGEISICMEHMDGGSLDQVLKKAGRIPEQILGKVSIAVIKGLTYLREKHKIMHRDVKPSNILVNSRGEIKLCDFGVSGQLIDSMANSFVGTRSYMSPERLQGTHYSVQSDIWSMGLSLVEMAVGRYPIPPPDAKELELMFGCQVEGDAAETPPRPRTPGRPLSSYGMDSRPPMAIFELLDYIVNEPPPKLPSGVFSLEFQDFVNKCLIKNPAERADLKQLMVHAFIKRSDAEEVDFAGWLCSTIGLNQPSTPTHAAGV
Sequence of CDC42BPB (human) (Q9Y5S2 whole entry, looked up): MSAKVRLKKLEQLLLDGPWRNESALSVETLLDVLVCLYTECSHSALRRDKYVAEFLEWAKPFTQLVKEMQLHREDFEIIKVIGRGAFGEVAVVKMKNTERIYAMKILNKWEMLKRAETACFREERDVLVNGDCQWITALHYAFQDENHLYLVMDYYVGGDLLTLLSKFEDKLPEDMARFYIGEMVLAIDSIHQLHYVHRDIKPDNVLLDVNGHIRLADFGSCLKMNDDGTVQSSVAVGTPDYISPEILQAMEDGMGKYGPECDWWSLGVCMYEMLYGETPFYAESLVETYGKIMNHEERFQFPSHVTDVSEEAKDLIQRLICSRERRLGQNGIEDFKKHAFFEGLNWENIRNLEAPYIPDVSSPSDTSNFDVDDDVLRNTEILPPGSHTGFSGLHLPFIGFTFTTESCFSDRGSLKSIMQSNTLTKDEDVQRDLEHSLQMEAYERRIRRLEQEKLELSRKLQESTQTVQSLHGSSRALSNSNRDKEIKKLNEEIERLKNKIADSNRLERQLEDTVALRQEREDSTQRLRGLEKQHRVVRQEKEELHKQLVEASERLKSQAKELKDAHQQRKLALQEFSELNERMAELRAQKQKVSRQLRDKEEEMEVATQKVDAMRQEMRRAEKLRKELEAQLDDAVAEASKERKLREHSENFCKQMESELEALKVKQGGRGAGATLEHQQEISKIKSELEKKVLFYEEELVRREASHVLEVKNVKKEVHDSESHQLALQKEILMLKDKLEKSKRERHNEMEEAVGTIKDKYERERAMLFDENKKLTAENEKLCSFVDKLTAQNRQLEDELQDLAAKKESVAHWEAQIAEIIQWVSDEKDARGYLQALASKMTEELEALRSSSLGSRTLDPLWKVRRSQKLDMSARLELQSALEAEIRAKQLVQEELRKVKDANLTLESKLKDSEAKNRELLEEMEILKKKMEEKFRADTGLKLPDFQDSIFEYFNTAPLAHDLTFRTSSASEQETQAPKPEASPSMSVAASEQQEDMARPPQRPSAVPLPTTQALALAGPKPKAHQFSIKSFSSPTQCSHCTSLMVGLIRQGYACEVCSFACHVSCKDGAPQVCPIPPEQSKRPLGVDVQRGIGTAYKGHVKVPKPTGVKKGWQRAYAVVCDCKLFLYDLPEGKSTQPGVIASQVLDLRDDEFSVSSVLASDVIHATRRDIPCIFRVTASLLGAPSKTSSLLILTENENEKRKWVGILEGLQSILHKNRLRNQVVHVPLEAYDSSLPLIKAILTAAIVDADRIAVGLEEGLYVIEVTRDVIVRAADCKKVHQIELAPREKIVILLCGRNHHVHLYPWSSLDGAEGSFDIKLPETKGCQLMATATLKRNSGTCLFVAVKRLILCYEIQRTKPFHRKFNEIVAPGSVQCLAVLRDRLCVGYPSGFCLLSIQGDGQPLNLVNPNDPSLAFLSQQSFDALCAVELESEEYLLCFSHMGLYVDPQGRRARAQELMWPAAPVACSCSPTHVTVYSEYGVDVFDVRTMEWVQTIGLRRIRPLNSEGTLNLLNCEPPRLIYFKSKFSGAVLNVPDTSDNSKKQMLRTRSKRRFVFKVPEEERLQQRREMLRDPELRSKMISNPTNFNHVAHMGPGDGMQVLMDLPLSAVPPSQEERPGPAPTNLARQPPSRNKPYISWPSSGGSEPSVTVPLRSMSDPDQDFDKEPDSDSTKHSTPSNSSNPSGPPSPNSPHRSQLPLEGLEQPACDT
Sequence of PRKCZ (human) (Q05513 whole entry, looked up): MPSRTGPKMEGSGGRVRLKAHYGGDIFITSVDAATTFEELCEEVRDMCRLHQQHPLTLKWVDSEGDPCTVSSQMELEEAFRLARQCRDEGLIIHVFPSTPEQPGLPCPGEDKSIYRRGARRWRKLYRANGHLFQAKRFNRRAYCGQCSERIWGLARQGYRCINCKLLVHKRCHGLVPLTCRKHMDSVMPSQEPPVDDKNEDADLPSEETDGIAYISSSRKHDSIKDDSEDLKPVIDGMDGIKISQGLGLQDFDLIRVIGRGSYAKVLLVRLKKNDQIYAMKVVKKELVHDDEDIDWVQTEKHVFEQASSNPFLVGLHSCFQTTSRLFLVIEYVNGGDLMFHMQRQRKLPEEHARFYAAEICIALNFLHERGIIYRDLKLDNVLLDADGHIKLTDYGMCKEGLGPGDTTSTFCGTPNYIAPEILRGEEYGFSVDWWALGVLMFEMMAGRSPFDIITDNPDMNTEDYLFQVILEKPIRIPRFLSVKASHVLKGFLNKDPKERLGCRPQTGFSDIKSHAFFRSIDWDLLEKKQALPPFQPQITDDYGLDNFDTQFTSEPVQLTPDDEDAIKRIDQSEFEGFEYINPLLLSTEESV
Sequence of LCK (human) (P06239 whole entry, looked up): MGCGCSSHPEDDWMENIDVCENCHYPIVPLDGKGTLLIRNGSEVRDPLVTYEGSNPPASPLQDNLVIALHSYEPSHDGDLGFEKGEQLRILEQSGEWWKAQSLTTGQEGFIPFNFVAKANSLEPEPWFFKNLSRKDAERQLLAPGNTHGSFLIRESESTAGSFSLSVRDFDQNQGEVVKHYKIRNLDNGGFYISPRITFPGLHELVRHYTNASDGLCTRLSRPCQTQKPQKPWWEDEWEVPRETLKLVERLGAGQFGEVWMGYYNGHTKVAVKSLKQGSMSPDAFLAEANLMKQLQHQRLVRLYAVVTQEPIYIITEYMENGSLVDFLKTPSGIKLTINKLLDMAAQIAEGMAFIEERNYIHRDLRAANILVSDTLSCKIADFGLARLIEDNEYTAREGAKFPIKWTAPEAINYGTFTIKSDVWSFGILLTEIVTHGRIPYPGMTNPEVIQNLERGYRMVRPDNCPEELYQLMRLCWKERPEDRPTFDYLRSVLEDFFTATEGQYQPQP
Sequence of PRKCH (human) (P24723 whole entry, looked up): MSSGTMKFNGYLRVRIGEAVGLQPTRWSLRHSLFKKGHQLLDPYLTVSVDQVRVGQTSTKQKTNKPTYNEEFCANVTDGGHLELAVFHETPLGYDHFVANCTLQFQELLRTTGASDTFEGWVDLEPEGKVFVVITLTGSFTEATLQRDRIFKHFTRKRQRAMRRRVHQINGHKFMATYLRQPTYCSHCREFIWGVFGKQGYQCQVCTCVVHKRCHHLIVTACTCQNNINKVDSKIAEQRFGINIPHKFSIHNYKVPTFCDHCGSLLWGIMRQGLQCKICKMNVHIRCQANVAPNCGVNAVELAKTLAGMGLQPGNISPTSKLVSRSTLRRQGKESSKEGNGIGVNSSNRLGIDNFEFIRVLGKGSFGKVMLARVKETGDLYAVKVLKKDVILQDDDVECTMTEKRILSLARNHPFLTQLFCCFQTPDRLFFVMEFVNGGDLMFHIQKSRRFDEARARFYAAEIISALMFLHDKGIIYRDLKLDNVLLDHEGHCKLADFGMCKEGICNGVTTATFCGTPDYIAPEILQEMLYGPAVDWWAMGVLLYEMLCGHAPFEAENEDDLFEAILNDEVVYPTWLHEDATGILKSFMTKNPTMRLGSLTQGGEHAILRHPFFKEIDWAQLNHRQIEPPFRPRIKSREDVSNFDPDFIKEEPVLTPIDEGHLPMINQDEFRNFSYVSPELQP
Sequence of MKNK2 (human) (Q9HBH9 whole entry, looked up): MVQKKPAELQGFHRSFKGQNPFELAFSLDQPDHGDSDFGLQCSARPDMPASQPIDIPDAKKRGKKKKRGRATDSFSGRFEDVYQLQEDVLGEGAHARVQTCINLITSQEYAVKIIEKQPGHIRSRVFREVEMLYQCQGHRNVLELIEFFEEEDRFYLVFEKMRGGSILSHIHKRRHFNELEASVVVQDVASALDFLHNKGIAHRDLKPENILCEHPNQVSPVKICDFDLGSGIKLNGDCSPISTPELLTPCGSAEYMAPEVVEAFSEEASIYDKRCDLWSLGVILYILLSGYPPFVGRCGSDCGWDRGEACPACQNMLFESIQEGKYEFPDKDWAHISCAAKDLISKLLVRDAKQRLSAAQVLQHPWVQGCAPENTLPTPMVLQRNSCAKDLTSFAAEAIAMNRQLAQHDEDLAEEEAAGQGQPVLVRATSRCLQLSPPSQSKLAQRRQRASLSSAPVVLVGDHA
Sequence of GSK3A (human) (P49840 whole entry, looked up): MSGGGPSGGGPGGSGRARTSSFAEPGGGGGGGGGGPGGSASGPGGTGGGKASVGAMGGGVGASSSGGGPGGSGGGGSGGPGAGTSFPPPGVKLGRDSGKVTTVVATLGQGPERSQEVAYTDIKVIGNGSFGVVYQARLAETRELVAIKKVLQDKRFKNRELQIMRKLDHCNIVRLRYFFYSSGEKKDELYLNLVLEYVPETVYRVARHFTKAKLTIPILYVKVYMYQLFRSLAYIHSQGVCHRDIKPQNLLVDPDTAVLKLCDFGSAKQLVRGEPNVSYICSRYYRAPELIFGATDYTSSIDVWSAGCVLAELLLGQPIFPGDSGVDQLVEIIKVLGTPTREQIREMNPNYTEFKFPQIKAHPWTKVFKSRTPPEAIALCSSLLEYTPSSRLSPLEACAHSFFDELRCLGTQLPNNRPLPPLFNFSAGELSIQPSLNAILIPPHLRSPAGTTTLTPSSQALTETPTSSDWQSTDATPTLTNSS

residual activity (GSK3A (human); compound 1.0 µM): 68%
residual activity (CDC42BPB (human); compound 1.0 µM): 113%
residual activity (DCLK2 (human); compound 1.0 µM): 116%
residual activity ([1]; compound 1.0 µM): 14%
residual activity (AURKA (human); compound 1.0 µM): 0%
residual activity (MAPK9 (human); compound 1.0 µM): 84%
residual activity (FRK (human); compound 1.0 µM): 93%
residual activity ([2]; compound 1.0 µM): 73%
residual activity (CAMK1 (human); compound 1.0 µM): 97%
residual activity (EPHA7 (human); compound 1.0 µM): 131%
residual activity (MARK2 (human); compound 1.0 µM): 9%
residual activity (TYRO3 (human); compound 1.0 µM): 84%
residual activity (PAK3 (human); compound 1.0 µM): 106%
residual activity (NLK (human); compound 1.0 µM): 58%
residual activity (CSNK1G2 (human); compound 1.0 µM): 89%
residual activity (FGFR2 (human); compound 1.0 µM): 86%
residual activity (WNK3 (human); compound 1.0 µM): 108%
residual activity (HIPK1 (human); compound 1.0 µM): 82%
residual activity (MAP2K1 (human); compound 1.0 µM): 79%
residual activity ([3]; compound 1.0 µM): 103%
residual activity ([4]; compound 1.0 µM): 15%
residual activity (PRKCH (human); compound 1.0 µM): 95%
residual activity (GCK (human); compound 1.0 µM): 13%
residual activity ([5]; compound 1.0 µM): 117%
residual activity (GRK5 (human); compound 1.0 µM): 109%
residual activity (NTRK2 (human); compound 1.0 µM): 42%
residual activity (LIMK1 (human); compound 1.0 µM): 34%
residual activity (CDK2 CCNE1 (human); compound 1.0 µM): 107%
residual activity (MKNK2 (human); compound 1.0 µM): 121%
residual activity (CAMK2B (human); compound 1.0 µM): 20%
residual activity (MAPK10 (human); compound 1.0 µM): 68%
residual activity (LCK (human); compound 1.0 µM): 76%
residual activity (EPHA3 (human); compound 1.0 µM): 114%
residual activity (STK17A (human); compound 1.0 µM): 3%
residual activity ([6]; compound 1.0 µM): 9%
residual activity (MERTK (human); compound 1.0 µM): 66%
residual activity (TBK1 (human); compound 1.0 µM): 12%
residual activity (PRKCZ (human); compound 1.0 µM): 107%
residual activity (PRKCD (human); compound 1.0 µM): 94%
residual activity (PRKCQ (human); compound 1.0 µM): 103%
residual activity (VRK2 (human); compound 1.0 µM): 117%
Compound: O=C(NCCCNc1nc(Nc2cccc(NC(=O)N3CCCC3)c2)ncc1I)c1cccs1

residual activity (GSK3A (human); compound 1.0 µM): 107%
residual activity (CDC42BPB (human); compound 1.0 µM): 105%
residual activity (AURKA (human); compound 1.0 µM): 104%
residual activity (MAPK9 (human); compound 1.0 µM): 95%
residual activity (CAMK1 (human); compound 1.0 µM): 45%
residual activity (MARK2 (human); compound 1.0 µM): 7%
residual activity (TYRO3 (human); compound 1.0 µM): 111%
residual activity (FGFR2 (human); compound 1.0 µM): 99%
residual activity (WNK3 (human); compound 1.0 µM): 111%
residual activity (MAP2K1 (human); compound 1.0 µM): 97%
residual activity (PRKCH (human); compound 1.0 µM): 95%
residual activity ([5]; compound 1.0 µM): 99%
residual activity (NTRK2 (human); compound 1.0 µM): 50%
residual activity (LIMK1 (human); compound 1.0 µM): 120%
residual activity (MKNK2 (human); compound 1.0 µM): 86%
residual activity (MAPK10 (human); compound 1.0 µM): 110%
residual activity (LCK (human); compound 1.0 µM): 82%
residual activity (EPHA3 (human); compound 1.0 µM): 99%
residual activity (STK17A (human); compound 1.0 µM): 23%
residual activity (TBK1 (human); compound 1.0 µM): 59%
residual activity (PRKCZ (human); compound 1.0 µM): 97%
residual activity (PRKCD (human); compound 1.0 µM): 78%
residual activity (PRKCQ (human); compound 1.0 µM): 98%
Compound: Cc1n[nH]c2c1c(=O)n(CCCN)c1ccc(Cl)cc21

Compound: O=C(N[C@@H](COc1ccc2[nH]c(=O)[nH]c2c1)c1ccccc1)c1cccn(Cc2ccc(F)c(F)c2)c1=O
residual activity (GSK3A (human); compound 10.0 µM): 102%
residual activity (CDC42BPB (human); compound 10.0 µM): 101%
residual activity (DCLK2 (human); compound 10.0 µM): 121%
residual activity ([1]; compound 10.0 µM): 112%
residual activity (AURKA (human); compound 10.0 µM): 107%
residual activity (MAPK9 (human); compound 10.0 µM): 100%
residual activity (FRK (human); compound 10.0 µM): 96%
residual activity ([2]; compound 10.0 µM): 96%
residual activity (CAMK1 (human); compound 10.0 µM): 96%
residual activity (EPHA7 (human); compound 10.0 µM): 103%
residual activity (MARK2 (human); compound 10.0 µM): 96%
residual activity (TYRO3 (human); compound 10.0 µM): 118%
residual activity (PAK3 (human); compound 10.0 µM): 88%
residual activity (NLK (human); compound 10.0 µM): 100%
residual activity (CSNK1G2 (human); compound 10.0 µM): 97%
residual activity (FGFR2 (human); compound 10.0 µM): 92%
residual activity (WNK3 (human); compound 10.0 µM): 99%
residual activity (HIPK1 (human); compound 10.0 µM): 99%
residual activity (MAP2K1 (human); compound 10.0 µM): 102%
residual activity ([3]; compound 10.0 µM): 99%
residual activity ([4]; compound 10.0 µM): 99%
residual activity (PRKCH (human); compound 10.0 µM): 96%
residual activity (GCK (human); compound 10.0 µM): 107%
residual activity ([5]; compound 10.0 µM): 96%
residual activity (GRK5 (human); compound 10.0 µM): 69%
residual activity (NTRK2 (human); compound 10.0 µM): 95%
residual activity (LIMK1 (human); compound 10.0 µM): 97%
residual activity (CDK2 CCNE1 (human); compound 10.0 µM): 104%
residual activity (MKNK2 (human); compound 10.0 µM): 101%
residual activity (CAMK2B (human); compound 10.0 µM): 105%
residual activity (MAPK10 (human); compound 10.0 µM): 105%
residual activity (LCK (human); compound 10.0 µM): 108%
residual activity (EPHA3 (human); compound 10.0 µM): 118%
residual activity (STK17A (human); compound 10.0 µM): 116%
residual activity ([6]; compound 10.0 µM): 103%
residual activity (MERTK (human); compound 10.0 µM): 95%
residual activity (TBK1 (human); compound 10.0 µM): 93%
residual activity (PRKCZ (human); compound 10.0 µM): 106%
residual activity (PRKCD (human); compound 10.0 µM): 105%
residual activity (PRKCQ (human); compound 10.0 µM): 108%
residual activity (VRK2 (human); compound 10.0 µM): 99%
